Assay results: PubChem BioAssay AID2060490 (Molecular Pharmacology Branch, DTP, NCI, 2025)

Test system: 885512-296-R-J2-PDC complex spheroid viability
Test: Anticancer human tumor 885512-296-R-J2-PDC patient-derived breast carcinoma cell line growth inhibition [GQUAD]
Details: for IC50: curve of first compound; for viability, T/C: stronger effect = lower value
Summary of the method: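 Multi-cell-type spheroids of tumor cells with HUVEC and mesenchymal stem cells, treated with drug combinations. Concentrations descend in half-log steps from near clinical Cmax, or from 10 microM where Cmax is unknown; viability read-out.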

[1] = second compound 0.0316 µM, first compound 0.0316 µM
[2] = second compound 0.0316 µM, first compound 0.1 µM
[3] = second compound 0.0316 µM, first compound 0.316 µM
[4] = second compound 0.0316 µM, first compound 1 µM
[5] = second compound 0.0316 µM, first compound 3.16 µM
[6] = second compound 0.0316 µM, first compound 10 µM
[7] = second compound 0.1 µM, first compound 0.0316 µM
[8] = second compound 0.1 µM, first compound 0.1 µM
[9] = second compound 0.1 µM, first compound 0.316 µM
[10] = second compound 0.1 µM, first compound 1 µM
[11] = second compound 0.1 µM, first compound 3.16 µM
[12] = second compound 0.1 µM, first compound 10 µM
[13] = second compound 0.316 µM, first compound 0.0316 µM
[14] = second compound 0.316 µM, first compound 0.1 µM
[15] = second compound 0.316 µM, first compound 0.316 µM
[16] = second compound 0.316 µM, first compound 1 µM
[17] = second compound 0.316 µM, first compound 3.16 µM
[18] = second compound 0.316 µM, first compound 10 µM
[19] = second compound 1 µM, first compound 0.0316 µM
[20] = second compound 1 µM, first compound 0.1 µM
[21] = second compound 1 µM, first compound 0.316 µM
[22] = second compound 1 µM, first compound 1 µM
[23] = second compound 1 µM, first compound 3.16 µM
[24] = second compound 1 µM, first compound 10 µM
[25] = second compound 3.16 µM, first compound 0.0316 µM
[26] = second compound 3.16 µM, first compound 0.1 µM
[27] = second compound 3.16 µM, first compound 0.316 µM
[28] = second compound 3.16 µM, first compound 1 µM
[29] = second compound 3.16 µM, first compound 3.16 µM
[30] = second compound 3.16 µM, first compound 10 µM
[31] = second compound 10 µM, first compound 0.0316 µM
[32] = second compound 10 µM, first compound 0.1 µM
[33] = second compound 10 µM, first compound 0.316 µM
[34] = second compound 10 µM, first compound 1 µM
[35] = second compound 10 µM, first compound 3.16 µM
[36] = second compound 10 µM, first compound 10 µM
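Also: spheroids exposed to the compounds for one week.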
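For viability, T/C in this document: percent of tumor spheroid viability relative to DMSO vehicle control wells.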

C=CCn1c(=O)c2cnc(Nc3ccc(N4CCN(C)CC4)cc3)nc2n1-c1cccc(C(C)(C)O)n1 + Cc1[nH]c2ccc(F)cc2c1-c1nc2c3cccnc3c3ncccc3c2[nH]1
IC50 (second compound 0.0316 µM): 6580 nM | IC50 (second compound 0.1 µM): 6680 nM | IC50 (second compound 0.316 µM): 6260 nM | IC50 (second compound 1 µM): 1460 nM | IC50 (second compound 3.16 µM): < 31.6 nM | IC50 (second compound 10 µM): < 31.6 nM | viability, T/C [1]: 128% | viability, T/C [2]: 96.4% | viability, T/C [3]: 96.5% | viability, T/C [4]: 125% | viability, T/C [5]: 83.7% | viability, T/C [6]: 30.8% | viability, T/C [7]: 108% | viability, T/C [8]: 102% | viability, T/C [9]: 97.2% | viability, T/C [10]: 104% | viability, T/C [11]: 88% | viability, T/C [12]: 29.2% | viability, T/C [13]: 88% | viability, T/C [14]: 98% | viability, T/C [15]: 96.1% | viability, T/C [16]: 95.6% | viability, T/C [17]: 89.2% | viability, T/C [18]: 23% | viability, T/C [19]: 74.3% | viability, T/C [20]: 68.4% | viability, T/C [21]: 61.6% | viability, T/C [22]: 59.1% | viability, T/C [23]: 37.4% | viability, T/C [24]: 8.34% | viability, T/C [25]: 6.03% | viability, T/C [26]: 7.36% | viability, T/C [27]: 2.92% | viability, T/C [28]: 6.25% | viability, T/C [29]: 8.08% | viability, T/C [30]: 1.1% | viability, T/C [31]: 1.82% | viability, T/C [32]: 2.1% | viability, T/C [33]: 2.49% | viability, T/C [34]: 1.79% | viability, T/C [35]: 2.05% | viability, T/C [36]: 1.03%

CC(C)(O)C1CCC(Nc2ccc3ncc(-c4cccc(C(F)(F)F)c4)n3n2)CC1 (stereo unspecified) + Cc1cnc(CNC(=O)c2c(=O)c3ccc(N4CCCN(C)CC4)nc3n3c2sc2ccccc23)cn1
IC50 (second compound 0.0316 µM): 1670 nM | IC50 (second compound 0.1 µM): 1350 nM | IC50 (second compound 0.316 µM): < 31.6 nM | IC50 (second compound 1 µM): < 31.6 nM | IC50 (second compound 3.16 µM): < 31.6 nM | IC50 (second compound 10 µM): < 31.6 nM | viability, T/C [1]: 91.5% | viability, T/C [2]: 70.3% | viability, T/C [3]: 85.9% | viability, T/C [4]: 69.8% | viability, T/C [5]: 25.8% | viability, T/C [6]: 25.2% | viability, T/C [7]: 63.4% | viability, T/C [8]: 55.3% | viability, T/C [9]: 52.6% | viability, T/C [10]: 57.6% | viability, T/C [11]: 29.6% | viability, T/C [12]: 24.7% | viability, T/C [13]: 24.4% | viability, T/C [14]: 23.7% | viability, T/C [15]: 25.7% | viability, T/C [16]: 27.1% | viability, T/C [17]: 28.8% | viability, T/C [18]: 20.6% | viability, T/C [19]: 22.9% | viability, T/C [20]: 23.8% | viability, T/C [21]: 29.4% | viability, T/C [22]: 29.9% | viability, T/C [23]: 25.6% | viability, T/C [24]: 11.9% | viability, T/C [25]: 27.7% | viability, T/C [26]: 28% | viability, T/C [27]: 24.5% | viability, T/C [28]: 23.1% | viability, T/C [29]: 0.1% | viability, T/C [30]: 0.36% | viability, T/C [31]: 0.06% | viability, T/C [32]: 0.14% | viability, T/C [33]: 0.19% | viability, T/C [34]: 0.18% | viability, T/C [35]: 0.19% | viability, T/C [36]: 0.2%

CC(C)n1c(=O)n(C)c2cnc3cc(F)c(-c4ccc(OCCCN5CCCCC5)nc4)cc3c21 + CN(C)c1ccc(Nc2c3ccc(NC(=O)CCN4CCCC4)cc3nc3cc(NC(=O)CCN4CCCC4)ccc23)cc1
IC50 (second compound 0.0316 µM): > 10000 nM | IC50 (second compound 0.1 µM): > 10000 nM | IC50 (second compound 0.316 µM): > 10000 nM | IC50 (second compound 1 µM): > 10000 nM | IC50 (second compound 3.16 µM): 654 nM | IC50 (second compound 10 µM): < 31.6 nM | viability, T/C [1]: 89.9% | viability, T/C [2]: 81.4% | viability, T/C [3]: 97.1% | viability, T/C [4]: 84.5% | viability, T/C [5]: 118% | viability, T/C [6]: 98.2% | viability, T/C [7]: 81.3% | viability, T/C [8]: 87.5% | viability, T/C [9]: 82.2% | viability, T/C [10]: 95.7% | viability, T/C [11]: 108% | viability, T/C [12]: 72.4% | viability, T/C [13]: 83.4% | viability, T/C [14]: 69.8% | viability, T/C [15]: 84.3% | viability, T/C [16]: 92.9% | viability, T/C [17]: 118% | viability, T/C [18]: 78.6% | viability, T/C [19]: 84% | viability, T/C [20]: 86.3% | viability, T/C [21]: 94.5% | viability, T/C [22]: 87.9% | viability, T/C [23]: 94.8% | viability, T/C [24]: 54.3% | viability, T/C [25]: 75.3% | viability, T/C [26]: 70.4% | viability, T/C [27]: 52% | viability, T/C [28]: 47.5% | viability, T/C [29]: 35.4% | viability, T/C [30]: 18.8% | viability, T/C [31]: 16.4% | viability, T/C [32]: 14.6% | viability, T/C [33]: 13.3% | viability, T/C [34]: 10.1% | viability, T/C [35]: 9.73% | viability, T/C [36]: 2.68%
